According to patent publication US12679878B2, “CRF2 receptor agonists and their use in therapy” (SANOFI, priority 2020, dated 2026):
Values after ≈ are worked out from the molar mass of the structure shown. Blank lines part the entries; values can stand above or below the compound they belong to. Starred links: 1 amine or outer side, 2 acyl side, 3 side chain; linkers in the order of their positions; H or OH if unused. Non-standard residues stand in square brackets, D forms with d. Residues, ends and D or L forms follow the SMILES beside them. Groups on a side chain read outwards from the residue. *: point of attachment. C16 diacid = O=C(O)CCCCCCCCCCCCCCC(=O)*; γGlu = O=C(O)[C@H](CCC(=O)[*:2])N[*:1]; Palmitoyl = CCCCCCCCCCCCCCCC(=O)*; Aib = CC(C)(N)C(=O)O

Experiments:
CRF2R = target: T1, CRF2R (Homo sapiens, UniProt Q13324); assay: EC50 [nM] CRF2R
T1 construct: expressed in transfected cells; host or cells: TeloHEAC
Text: Table printed on a drawing sheet, Fig. 3
Head of the field: EC50 [nM] CRF2R
The patent's description of the figure: FIG. 3: Representative sequences from peptides according to the invention with an optimized stability profile, wherein K[sema] stands for K[gGlu-C(O)(CH2)14CH3]
First copying reader's note: Second half (positions 13-38, C-term and activity) of the first table; the rows follow the same order, so the four rows of Peptide Seq. 1 are Patent Sequence N° 130, 171, 172 and 173.
Where the first naming reader finds the target: head: EC50 [nM] CRF2R

CRF1R receptor = target: T2, CRF1R receptor (Homo sapiens, UniProt P34998); assay: cAMP activity at anti-target CRF1R, CHO-K1 cell line clone 2 (Example 19.10); format: cell-based; details: ratio of CRF1 EC50 to CRF2 EC50
T2 construct: host or cells: CHO-K1 clone 2
T2 sequence (P34998 24-415): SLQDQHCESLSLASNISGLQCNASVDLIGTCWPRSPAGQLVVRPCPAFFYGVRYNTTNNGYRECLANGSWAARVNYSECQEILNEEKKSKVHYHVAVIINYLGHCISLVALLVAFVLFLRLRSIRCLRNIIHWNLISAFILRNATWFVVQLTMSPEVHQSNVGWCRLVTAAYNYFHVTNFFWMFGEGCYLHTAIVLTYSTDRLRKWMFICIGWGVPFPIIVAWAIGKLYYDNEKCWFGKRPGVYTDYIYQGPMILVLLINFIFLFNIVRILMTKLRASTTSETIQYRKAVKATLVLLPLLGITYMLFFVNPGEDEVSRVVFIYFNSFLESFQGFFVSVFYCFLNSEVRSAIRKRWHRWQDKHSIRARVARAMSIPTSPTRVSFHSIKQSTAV
Procedure, shortened: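 A CRF1R-overexpressing CHO-K1 line (clone 2) was grown in F12/10% FBS/G418 and frozen in aliquots before use. The cAMP assay followed the preceding procedure, with 100% activation defined by Sauvagine at 100 nM.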

human CRF2α receptor = target: T3, human CRF2α receptor (Homo sapiens, UniProt Q13324); assay: cAMP agonism at human CRF2α receptor in TeloHEAC cells, FA modified peptides (Example 19.9); format: cell-based; details: 0% HSA, relative to urocortin 2
T3 construct: expressed in transfected cells; host or cells: TeloHEAC
T3 sequence (Q13324 1-411): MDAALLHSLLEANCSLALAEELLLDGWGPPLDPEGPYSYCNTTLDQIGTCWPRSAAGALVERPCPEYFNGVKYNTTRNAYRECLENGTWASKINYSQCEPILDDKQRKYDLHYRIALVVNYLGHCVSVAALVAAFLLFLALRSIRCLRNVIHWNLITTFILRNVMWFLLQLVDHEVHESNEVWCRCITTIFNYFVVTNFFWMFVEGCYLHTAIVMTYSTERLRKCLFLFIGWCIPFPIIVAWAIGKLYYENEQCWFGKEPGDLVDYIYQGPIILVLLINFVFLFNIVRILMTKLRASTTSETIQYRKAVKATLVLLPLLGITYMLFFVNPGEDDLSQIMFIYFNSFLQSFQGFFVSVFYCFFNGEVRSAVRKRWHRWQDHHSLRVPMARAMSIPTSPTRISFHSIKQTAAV
Procedure, shortened: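 Efficacy and EC50 are referenced to 100 nM urocortin 2 as 100%, with cAMP measured as the 665/620 nm HTRF ratio after 1 h at room temperature. Compounds (0.5 mM DMSO stock, 16 twofold dilutions) acted 30 min at 37 °C on CRF2α-expressing TeloHEAC cells, buffer containing IBMX and 0% or 0.2% HSA.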

[1] = Chemical stability as % loss by LC-UV, 28 days 40° C. vs 5° C. (Example 19.11); format: physicochemical
Procedure: (§1) As for example 15 above, also the chemical stability of representative examples of these FA modified peptides has been assessed, using LC-UV instead of light scattering. Solubility and chemical stability were studied in 100 mM phosphate buffer (pH 7.4) and 100 mM acetate buffer (pH 4.5). Test compound powders were dissolved in both buffers at a target concentration of 10 mg/mL and incubated for 1 hour at room temperature. After centrifugation at 2500 rcf for 15 minutes, […] of supernatant was diluted with […] of the incubation buffer and analyzed by LC-UV (Acquity UPLC-DAD, Waters). Solubility was calculated by comparing the peak area of the test compound in the buffer sample with the peak area of the same compound dissolved at 0.5 mg/ml in water:acetonitrile 1:1, 0.1% formic acid.
From the centrifuged supernatant, two additional […] aliquots were collected and diluted with […] of incubation buffer. One aliquot was stored at 5° C., while the other was stored at 40° C. After 28 days, the samples were analyzed by LC-UV. Chemical stability was calculated as % loss using the following equations: • Chemical stability (as % loss)=[(purity after 28 days at 5° C.)−(purity after 28 days at 40° C.)]×100/(purity after 28 days at 5° C.) % purity=[(peak area compound)×100/(total peak area)]

[2] = Buffer solubility by LC-UV, pH 7.4 phosphate and pH 4.5 acetate (Example 19.11); format: physicochemical; details: target 10 mg/mL
Procedure: as §1

EC50 (CRF2R): 0.07 nM
SMILES: CCCCCCCCCCCCCCCC(=O)N[C@@H](CCC(=O)NCCCC[C@H](NC(=O)[C@H](CC(C)C)NC(=O)[C@H](CCCCN)NC(=O)[C@@H](NC(=O)[C@@H]1CCCN1C(=O)[C@@H](NC(=O)[C@H](CC(=O)O)NC(=O)[C@H](CC(C)C)NC(=O)[C@H](CO)NC(=O)[C@H](CC(C)C)NC(=O)[C@@H](NC(=O)[C@@H](N)[C@@H](C)CC)C(C)C)C(C)C)[C@@H](C)CC)C(=O)N[C@@H](CCCCN)C(=O)N[C@H](C(=O)N[C@@H](CC(C)C)C(=O)N[C@@H](CC(C)C)C(=O)N[C@@H](CCC(=O)O)C(=O)N[C@@H](CCC(N)=O)C(=O)N[C@@H](CCC(=O)O)C(=O)N[C@@H](CCCCN)C(=O)N[C@@H](CCC(N)=O)C(=O)N[C@@H](CCC(=O)O)C(=O)N[C@@H](CCCCN)C(=O)N[C@@H](CCC(=O)O)C(=O)N[C@@H](CCCCN)C(=O)N[C@@H](CCC(N)=O)C(=O)N[C@@H](CCC(N)=O)C(=O)N[C@@H](C)C(=O)N[C@@H](CCC(=O)O)C(=O)N[C@H](C(=O)N[C@@H](CC(N)=O)C(=O)N[C@@H](C)C(=O)N[C@@H](CCC(N)=O)C(=O)N[C@H](C(=O)N[C@@H](CC(C)C)C(=O)N[C@@H](C)C(=O)N[C@@H](CCC(N)=O)C(=O)N[C@H](C(N)=O)C(C)C)[C@@H](C)CC)[C@@H](C)O)[C@@H](C)CC)C(=O)O [SEQ ID NO: 2] (H-IVLSLDVPIKLK([γGlu-Palmitoyl])KILLEQEKQEKEKQQAETNAQILAQV-NH2)

EC50 (CRF2R): 0.04 nM
SMILES: CCCCCCCCCCCCCCCC(=O)N[C@@H](CCC(=O)NCCCC[C@H](NC(=O)[C@H](CC(C)C)NC(=O)[C@H](CCCCN)NC(=O)[C@@H](NC(=O)[C@@H]1CCCN1C(=O)[C@@H](NC(=O)[C@H](CC(=O)O)NC(=O)[C@H](CC(C)C)NC(=O)[C@H](CO)NC(=O)[C@H](CC(C)C)NC(=O)[C@@H](NC(=O)[C@@H](N)[C@@H](C)CC)C(C)C)C(C)C)[C@@H](C)CC)C(=O)N[C@@H](CCCCN)C(=O)N[C@H](C(=O)N[C@@H](CC(C)C)C(=O)N[C@@H](CC(C)C)C(=O)N[C@@H](CCC(=O)O)C(=O)N[C@@H](CCC(N)=O)C(=O)N[C@@H](CCC(=O)O)C(=O)N[C@@H](CCCCN)C(=O)N[C@@H](CCC(N)=O)C(=O)N[C@@H](CCC(=O)O)C(=O)N[C@@H](CCCCN)C(=O)N[C@@H](CCC(=O)O)C(=O)N[C@@H](CCCCN)C(=O)N[C@@H](CCC(N)=O)C(=O)N[C@@H](CCC(N)=O)C(=O)N[C@@H](C)C(=O)N[C@@H](CCC(=O)O)C(=O)N[C@@H](CCCCN)C(=O)N[C@@H](CC(N)=O)C(=O)N[C@@H](C)C(=O)N[C@@H](CCC(N)=O)C(=O)N[C@H](C(=O)N[C@@H](CC(C)C)C(=O)N[C@@H](C)C(=O)N[C@@H](CCC(N)=O)C(=O)N[C@H](C(N)=O)C(C)C)[C@@H](C)CC)[C@@H](C)CC)C(=O)O [SEQ ID NO: 3] (H-IVLSLDVPIKLK([γGlu-Palmitoyl])KILLEQEKQEKEKQQAEKNAQILAQV-NH2)

EC50 (CRF2R): 0.05 nM
SMILES: CCCCCCCCCCCCCCCC(=O)N[C@@H](CCC(=O)NCCCC[C@H](NC(=O)[C@H](CC(C)C)NC(=O)CNC(=O)[C@@H](NC(=O)[C@@H]1CCCN1C(=O)[C@@H](NC(=O)[C@H](CC(=O)O)NC(=O)[C@H](CC(C)C)NC(=O)[C@H](CO)NC(=O)[C@H](CC(C)C)NC(=O)[C@@H](NC(=O)[C@@H](N)[C@@H](C)CC)C(C)C)C(C)C)[C@@H](C)CC)C(=O)N[C@@H](CCC(N)=O)C(=O)N[C@@H](CCCCN)C(=O)N[C@@H](CC(C)C)C(=O)N[C@@H](CC(C)C)C(=O)N[C@@H](CCCCN)C(=O)N[C@@H](CCC(N)=O)C(=O)N[C@@H](CCC(=O)O)C(=O)N[C@@H](CCCCN)C(=O)N[C@@H](CCC(N)=O)C(=O)N[C@@H](CCC(=O)O)C(=O)N[C@@H](CCCCN)C(=O)N[C@@H](CCC(=O)O)C(=O)N[C@@H](CCCCN)C(=O)N[C@@H](CCC(N)=O)C(=O)N[C@@H](CCC(N)=O)C(=O)N[C@@H](C)C(=O)N[C@@H](CCC(=O)O)C(=O)N[C@H](C(=O)N[C@@H](CC(N)=O)C(=O)N[C@@H](C)C(=O)N[C@@H](CCCCN)C(=O)N[C@H](C(=O)N[C@@H](CC(C)C)C(=O)N[C@@H](C)C(=O)N[C@@H](CCC(N)=O)C(=O)N[C@H](C(N)=O)C(C)C)[C@@H](C)CC)[C@@H](C)O)C(=O)O [SEQ ID NO: 4] (H-IVLSLDVPIGLK([γGlu-Palmitoyl])QKLLKQEKQEKEKQQAETNAKILAQV-NH2)

CRF1/CRF2 ratio (CRF1R receptor): 134
EC50 (human CRF2α receptor): 0.46 nM
% loss (chemical stability) ([1]; pH 4.5): 0%
% loss (chemical stability) ([1]; pH 7.4): 40%
solubility at 1 h ([2]; pH 4.5, 100 mM acetate buffer): 8300 µg/mL (≈ 1710 µM)
solubility at 1 h ([2]; pH 7.4, 100 mM phosphate buffer): 7900 µg/mL (≈ 1630 µM)
SMILES: CC[C@H](C)[C@H](N)C(=O)N[C@H](C(=O)N[C@@H](CC(C)C)C(=O)N[C@@H](CO)C(=O)N[C@@H](CC(C)C)C(=O)N[C@@H](CC(=O)O)C(=O)N[C@@H](C(=O)N1CCC[C@H]1C(=O)N[C@H](C(=O)N[C@@H](CCCCN)C(=O)N[C@@H](CC(C)C)C(=O)N[C@@H](CCCCNC(=O)CC[C@H](NC(=O)CCCCCCCCCCCCCCC(=O)O)C(=O)O)C(=O)N[C@@H](CCC(N)=O)C(=O)N[C@H](C(=O)N[C@@H](CC(C)C)C(=O)N[C@@H](CC(C)C)C(=O)N[C@@H](CCCCN)C(=O)N[C@@H](CCC(N)=O)C(=O)N[C@@H](CCC(=O)O)C(=O)N[C@@H](CCCNC(=N)N)C(=O)N[C@@H](CCC(N)=O)C(=O)N[C@@H](CCCCN)C(=O)NC(C)(C)C(=O)N[C@@H](CCC(N)=O)C(=O)N[C@@H](CCCNC(=N)N)C(=O)N[C@@H](CCC(N)=O)C(=O)N[C@@H](CCC(N)=O)C(=O)N[C@@H](C)C(=O)N[C@@H](CCC(=O)O)C(=O)N[C@@H](CCCCN)C(=O)N[C@@H](CC(N)=O)C(=O)N[C@@H](CCCCN)C(=O)N[C@@H](CCC(N)=O)C(=O)N[C@H](C(=O)N[C@@H](CC(C)C)C(=O)N[C@@H](C)C(=O)N[C@@H](CCC(N)=O)C(=O)N[C@H](C(N)=O)C(C)C)[C@@H](C)CC)[C@@H](C)CC)[C@@H](C)CC)C(C)C)C(C)C [compound 188] (H-IVLSLD[dV]PIKLK([γGlu-C16 diacid])QILLKQERQK[Aib]QRQQAEKNKQILAQV-NH2; N-terminus assumed)
